# Test results from paper PMC7914897, “Cytotoxic Potential of a-Azepano- and 3-Amino-3,4-SeCo-Triterpenoids” (International Journal of Molecular Sciences, 2021).
# Read-outs that look alike come from different tables or passages of the source.
# What was measured:
# [1] = tested on: FaDu (hypopharyngeal carcinoma); assay: SRB cytotoxicity assay, 72 h; format: cell-based, human; conditions: Homo sapiens, cut-off 30 µM, read-out: EC50
# How it was run: (§1)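 EC50 values reflect percent surviving cells versus untreated controls, read at 570 nm after SRB staining of TCA-fixed monolayers. Dosing spanned 0–30 µM over 72 h.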
# [2] = tested on: A2780 (ovarian carcinoma); assay: SRB cytotoxicity assay, 72 h; format: cell-based, human; conditions: Homo sapiens; A2780, 72 h, cut-off 30 µM; read-out: EC50
# How it was run: as §1
# [3] = tested on: A375 (malignant melanoma); assay: SRB cytotoxicity assay, 72 h; format: cell-based, human; conditions: Homo sapiens, A-375, 72 h, A375, 72 h, cut-off 30 µM; read-out: EC50
# How it was run: as §1
# MCF-7 (breast carcinoma) = assay: SRB cytotoxicity assay, 72 h; format: cell-based, human; conditions: Homo sapiens, MCF7; MCF-7, 72 h, cut-off 30 µM; read-out: EC50
# How it was run: as §1
# [4] = tested on: HT29 (colorectal carcinoma); assay: SRB cytotoxicity assay, 72 h; format: cell-based, human; conditions: Homo sapiens, HT-29; HT29, 72 h, cut-off 30 µM; read-out: EC50
# How it was run: as §1
# SF-268 (CNS cancer) = assay: NCI-60 screen (SRB, 48 h); conditions: Homo sapiens
# ACHN (Renal cancer) = assay: NCI-60 screen (SRB, 48 h)
# PC-3 (Prostate cancer) = assay: NCI-60 screen (SRB, 48 h); conditions: Homo sapiens
# UACC-62 (Melanoma) = assay: NCI-60 screen (SRB, 48 h); conditions: Homo sapiens
# HS 578T (Breast cancer) = assay: NCI-60 screen (SRB, 48 h); conditions: Homo sapiens
# [5] = tested on: A549/ATCC (NSC lung cancer); assay: NCI-60 screen (SRB, 48 h); conditions: Homo sapiens
# [6] = tested on: NCI-H322M (NSC lung cancer); assay: NCI-60 screen (SRB, 48 h); conditions: Homo sapiens
# M14 (Melanoma) = assay: NCI-60 screen (SRB, 48 h); conditions: Homo sapiens
# SF-539 (CNS cancer) = assay: NCI-60 screen (SRB, 48 h); conditions: Homo sapiens
# SN12C (Renal cancer) = assay: NCI-60 screen (SRB, 48 h); conditions: Homo sapiens
# [7] = tested on: NCI-H23 (NSC lung cancer); assay: NCI-60 screen (SRB, 48 h); conditions: Homo sapiens
# TK-10 (Renal cancer) = assay: NCI-60 screen (SRB, 48 h); conditions: Homo sapiens
# [8] = tested on: NIH 3T3 (non-malignant mouse fibroblasts); assay: SRB cytotoxicity assay, 72 h; format: cell-based; conditions: Mus musculus, NIH3T3; NIH 3T3, 72 h, cut-off 30 µM; read-out: EC50
# How it was run: as §1
# SW-620 (Colon cancer) = assay: NCI-60 screen (SRB, 48 h); conditions: Homo sapiens
# Ovarian Cancer subpanel = assay: NCI-60 screen, subpanel; conditions: Homo sapiens
# [9] = tested on: panel of approximately 60 cancer cell lines; assay: NCI-60 screen (SRB, 48 h), full panel
# CAKI-1 (Renal cancer) = assay: NCI-60 screen (SRB, 48 h); conditions: Homo sapiens
# OVCAR-8 (Ovarian cancer) = assay: NCI-60 screen (SRB, 48 h); conditions: Homo sapiens
# CNS cancer subpanel = assay: NCI-60 screen, subpanel; conditions: Homo sapiens
compound,measurement,setting,value
C=C(C)[C@@H]1CC[C@]2(C)[C@H](C=CC3=C4C[C@@](C)(CO)CC[C@]4(C)CC[C@]32C)[C@@]1(C)CCCN [Compound 20],EC50,[1],2.66 ± 0.2 µM
same,EC50,[2],4.35 ± 0.2 µM
same,EC50,[3],3.13 ± 0.1 µM
same,EC50,MCF-7 (breast carcinoma),2.84 ± 0.2 µM
same,EC50,[4],1.88 ± 0.3 µM
same,GI50,SF-268 (CNS cancer); SF-268,1.61 µM
same,IC (TGI),"SF-268 (CNS cancer); SF-268, 48 h, read-out: TGI",3.25 µM
same,CC50,"SF-268 (CNS cancer); SF-268, read-out: LC50",6.56 µM
same,Growth % of the Most Sensitive Cell Lines,ACHN (Renal cancer); 1 dose 10 µM,−94.94%
same,GI50,ACHN (Renal cancer); Homo sapiens,1.76 µM
same,IC (TGI),"ACHN (Renal cancer); Homo sapiens, 48 h, read-out: TGI",3.14 µM
same,CC50,"ACHN (Renal cancer); Homo sapiens, read-out: LC50",5.6 µM
same,GI50,PC-3 (Prostate cancer); PC-3,1.7 µM
same,IC (TGI),"PC-3 (Prostate cancer); PC-3, 48 h, read-out: TGI",3.28 µM
same,CC50,"PC-3 (Prostate cancer); PC-3, read-out: LC50",6.33 µM
same,GI50,UACC-62 (Melanoma); UACC-62,1.78 µM
same,IC (TGI),"UACC-62 (Melanoma); UACC-62, 48 h, read-out: TGI",3.17 µM
same,CC50,"UACC-62 (Melanoma); UACC-62, read-out: LC50",5.66 µM
same,GI50,HS 578T (Breast cancer),1.8 µM
same,IC (TGI),"HS 578T (Breast cancer); 48 h, read-out: TGI",4.07 µM
same,CC50,HS 578T (Breast cancer); read-out: LC50,9.2 µM
same,GI50,[5]; A549,1.6 µM
same,IC (TGI),"[5]; A549, 48 h, read-out: TGI",3.18 µM
same,CC50,"[5]; A549, read-out: LC50",6.34 µM
same,GI50,[6],1.57 µM
same,IC (TGI),"[6]; 48 h, read-out: TGI",2.91 µM
same,CC50,[6]; read-out: LC50,5.43 µM
same,GI50,M14 (Melanoma); M14,1.69 µM
same,IC (TGI),"M14 (Melanoma); M14, 48 h, read-out: TGI",3.34 µM
same,CC50,"M14 (Melanoma); M14, read-out: LC50",6.62 µM
same,GI50,SF-539 (CNS cancer); SF-539,1.73 µM
same,IC (TGI),"SF-539 (CNS cancer); SF-539, 48 h, read-out: TGI",3.13 µM
same,CC50,"SF-539 (CNS cancer); SF-539, read-out: LC50",5.67 µM
same,GI50,SN12C (Renal cancer),1.64 µM
same,IC (TGI),"SN12C (Renal cancer); 48 h, read-out: TGI",3.15 µM
same,CC50,SN12C (Renal cancer); read-out: LC50,6.03 µM
same,GI50,[7]; NCI-H23,1.77 µM
same,IC (TGI),"[7]; NCI-H23, 48 h, read-out: TGI",3.32 µM
same,CC50,"[7]; NCI-H23, read-out: LC50",6.24 µM
same,GI50,TK-10 (Renal cancer); TK-10,1.78 µM
same,IC (TGI),"TK-10 (Renal cancer); TK-10, 48 h, read-out: TGI",3.36 µM
same,CC50,"TK-10 (Renal cancer); TK-10, read-out: LC50",6.37 µM
same,EC50,[8],3.46 ± 0.3 µM
same,GI50,SW-620 (Colon cancer); SW-620,1.56 µM
same,IC (TGI),"SW-620 (Colon cancer); SW-620, 48 h, read-out: TGI",3.04 µM
same,CC50,"SW-620 (Colon cancer); SW-620, read-out: LC50",5.93 µM
same,IC (TGI),"Ovarian Cancer subpanel; 48 h, read-out: TGI MG_MID",3.3 µM
same,GI50,Ovarian Cancer subpanel; read-out: GI50 MG_MID,1.69 µM
same,CC50,Ovarian Cancer subpanel; read-out: LC50 MG_MID,6.49 µM
same,Positive Cytostatic Effect (cell lines with percent growth 0 to 50 / total),[9]; 1 dose 10 µM,8/60
same,Positive Cytotoxic Effect (cell lines with percent growth < 0 / total),[9]; 1 dose 10 µM,46/60
same,number of cancer cell lines the compound was active against,[9]; 1 dose 10 µM,52 cell lines
same,activity at 10 µM,"[9]; Homo sapiens, 48 h, read-out: Mean Growth, %",-36.5%
same,activity at 10 µM,"[9]; Homo sapiens, 48 h, read-out: Range of Growth, %",-100 to 90.8%
same,IC (TGI),"[9]; Homo sapiens, 48 h, read-out: TGI MG_MID60, average over all cell lines",3.36 µM
same,GI50,"[9]; Homo sapiens, read-out: GI50 MG_MID60",1.66 µM
same,GI50,"[9]; Homo sapiens, read-out: GI50 against all human tumor cell lines",< 3 µM
same,GI50,"[9]; Homo sapiens, read-out: GI50 against the most sensitive cell lines",0.2 to 0.94 µM
same,CC50,"[9]; Homo sapiens, read-out: LC50 MG_MID60, average over all cell lines",17.3 µM
same,GI50,CAKI-1 (Renal cancer); CAKI-1,1.52 µM
same,IC (TGI),"CAKI-1 (Renal cancer); CAKI-1, 48 h, read-out: TGI",2.85 µM
same,CC50,"CAKI-1 (Renal cancer); CAKI-1, read-out: LC50",5.34 µM
same,GI50,OVCAR-8 (Ovarian cancer); OVCAR-8,2.13 µM
same,IC (TGI),"OVCAR-8 (Ovarian cancer); OVCAR-8, 48 h, read-out: TGI",4.61 µM
same,CC50,"OVCAR-8 (Ovarian cancer); OVCAR-8, read-out: LC50",10 µM
same,IC (TGI),"CNS cancer subpanel; 48 h, read-out: TGI MG_MID",3.18 µM
same,GI50,CNS cancer subpanel; read-out: GI50 MG_MID,1.67 µM
same,CC50,CNS cancer subpanel; read-out: LC50 MG_MID,6.04 µM
